Tests used:
[1] = human patients, approved indications (immunosuppressive use); cited from earlier work
breast cancer cells = breast cancer cells in culture

Question: What does the source list for cyclosporine A?
Answer: Peak serum concentrations [1]: 2 to 8 µg/mL; media concentration having profound effects on survival of breast cancer cells (breast cancer cells): ≥ 20 ng/mL
